From publication PMC11935913, “Silk Nanococoons: Bio‐Nanoreactors for Enzymatic Catalytic Reactions and Applications to Alcohol Intoxication” (Small Science, 2021)

Target: T1, horseradish peroxidase (HRP) (Armoracia rusticana, UniProt P00433)
T1 construct: gene PRXC1A
T1 sequence (P00433 31-338): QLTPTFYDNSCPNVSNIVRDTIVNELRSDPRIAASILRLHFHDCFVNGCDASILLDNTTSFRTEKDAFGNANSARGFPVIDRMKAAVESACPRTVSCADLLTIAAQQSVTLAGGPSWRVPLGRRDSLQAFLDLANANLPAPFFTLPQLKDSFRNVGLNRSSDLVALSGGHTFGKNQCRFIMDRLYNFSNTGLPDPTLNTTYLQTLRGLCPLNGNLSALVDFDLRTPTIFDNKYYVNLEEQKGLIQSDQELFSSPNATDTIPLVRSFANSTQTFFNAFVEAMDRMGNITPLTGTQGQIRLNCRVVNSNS
Assay: absorbance, plate reader, oxidation by H2O2
Assay type: biochemical
Details: H2O2 co-substrate

Structure (SMILES) | absorbance, plate reader, oxidation by H2O2 (enzyme in silk fibroin nanospheres) | absorbance, plate reader, oxidation by H2O2 (generated by GOx from glucose)
Cc1cc(-c2cc(C)c(N)c(C)c2)cc(C)c1N [3,3′,5,5′‐tetramethylbenzidine] | activity recovery of enzyme HRP in SENs was monitored by the oxidation of TMB | 
COc1cc(-c2ccc(N)c(OC)c2)ccc1N [o‐dianisidine] |  | the ODS or TMB gets oxidized by H2O2 under the catalysis of HRP
